Columns and labels:
Format in all cases: cell-based
Details in all cases: at 31 ppm; absorption at 405 nm 7 days after inoculation; relative to active compound-free control (100%)
Pyricularia oryzae = tested on: Pyricularia oryzae
Botrytis cinerea = assay: Activity against the grey mold Botrytis cinerea in the microtiterplate test (Botrci)
Septoria tritici = assay: Activity against leaf blotch on wheat caused by Septoria tritici (Septtr), microtiterplate test

Measured: growth (relative growth in % of the pathogen)

OC(Cn1cncn1)(c1ccc(C#CC2CC2)cc1Cl)C1CC1 (stereo not drawn) [Compound I-1, 1-[2-chloro-4-(2-cyclopropylethynyl)phenyl]-1-cyclopropyl-2-(1,2,4-triazol-1-yl)ethanol]
0%: all assays above
